Assays:
[1] = test system: E0771 tumors; assay: Tissue oxygenation by phosphorescence quenching microscopy; format: in vivo, mice; conditions: versus control tumors that become more hypoxic with time
Procedure: Oxygenation was then studied using phosphorescence quenching microscopy.
An oxygen-sensitive porphyrin, Oxyphor R2 (Oxygen Enterprises) was injected retro-orbitally 12 hrs prior to imaging, and was reinjected immediately prior to imaging along with 2MDa FITC-dextran (Sigma-Aldrich) for functional vascular tracing. A mosaic image of the tumor was collected, and oxygen was then measured in an evenly spaced 12×12 grid at four depths (60, 120, 180, and 240 μm) in the tumor. At each point in the grid, the phosphorescence lifetime of the probe was measured after each of several repeated brief intense pulses of 1020 nm laser light, and these lifetime measurements were combined. A two-component model was used to calculate the oxygen tension from each lifetime measurement, accounting for binding and quenching of the probe by both oxygen and proteins. The grid was then overlayed on the mosaic images to make an oxygen map.

[2] = test system: tumors; assay: Solid stress after a panel of ARBs; format: in vivo; conditions: 40 mg/kg losartan, 3.2 mg/kg candesartan, 32 mg/kg valsartan
Procedure: Solid stress levels in tumors after angiotensin inhibition using the ARBs losartan, candesartan, and valsartan are shown. Doses were chosen based on their relative doses in patients for hypertension indications (40 mg/kg losartan, 3.2 mg/kg candesartan, 32 mg/kg valsartan). […] Animal numbers n=6-7. Statistical tests were corrected for multiple comparisons using the Holm-Bonferroni method.
The mechanism responsible for the increase in tumor vessel perfusion by losartan was investigated. Desmoplasia, high stromal cell and matrix density, is a major contributor to the solid stress accumulation that compresses vessels (Stylianopoulos T, et al., Growth-induced mechanical stress in murine and human tumors: causes, consequences and remedies. under review. 2012). Since angiotensin inhibitors reduce matrix production in tumors (Diop-Frimpong B, et al., Proc Natl Acad Sci USA. 2011; 108(7): 2909-14), it was hypothesized that they decompress vessels and increase perfusion by decreasing solid stress. Collagen levels were used as a metric of matrix production as described in Diop-Frimpong et al., Proc Nall Acad Sci USA. […] Moreover, losartan decreased collagen I concentration, measured based on staining intensity, in E0771 and AK4.4 tumors (FIGS. 24B-24C). Of note, dense collagen seemed to colocalize with low-perfusion areas (FIG. 24C). Next, solid stress in these tumors was measured using recently established technique described in Stylianopoulos T, et al., Growth-induced mechanical stress in murine and human tumors: causes, consequences and remedies. under review. 2012. […]
Solid stress: Solid stress was measured using the tumor opening technique as described previously (Stylianopoulos T, et al., Growth-induced mechanical stress in murine and human tumors: causes, consequences and remedies. under review. 2012). […] Subsequently, each tumor was excised, washed with Hanks' Balanced Salt Solution (HBSS) and its three dimensions were measured. […] Afterwards, the opening resulting from the cut was measured at the middle of the cut at the surface of the tumor. […]

[3] = test system: AK4.4 tumors; assay: Solid stress (tumor opening technique); set-up: species or system mice; conditions: mouse, in vivo
[4] = test system: HSTS26T tumors; assay: Intratumoral spread of i.t. injected oncolytic HSV (GFP); format: in vivo, mice; conditions: 24 hrs after i.t. injection of HSV expressing GFP
Text: (§1) Based on the previous studies on the tumor interstitial matrix (Pluen A, et al. (2001) Proc Natl Acad Sci USA 98:4628-4633 and Brown E, et al. (2003) Nat Med 9:796-800), the inventors then sought to determine if a decrease in collagen content by Losartan can improve the intratumoral distribution of nanoparticles. The inventors therefore measured the intratumoral distribution of fluorescent polystyrene nanoparticles (100 nm diameter) in three different tumor types—HSTS26T, Mu89, and L3.6 pl—after an i.t. or i.v. injection. In mice injected i.t. with nanoparticles, losartan improved nanoparticle accumulation and penetration in the tumor center (FIG. 8A; HSTS26T p<0.001, Mu89 p<0.001). Conversely, there was little or no nanoparticle accumulation in the center of control tumors. Most of the injected nanoparticles in control tumors were found in the tumor margin and around the needle insertion point (FIG. 8A). The inventors also determined the effects of losartan on the intratumoral distribution of oncolytic HSV.
(§2) Nanoparticles and oncolytic HSV were infused with a syringe pump (Harvard Apparatus Standard Pump 22, Holliston, Mass.) at a flow rate of 4 μl/min. The inventors injected 10 μl of HSV (2.5×10^5 t.u.) expressing the green fluorescent protein (GFP), or 10 μl of fluorescent nanoparticles (diameter of […]; concentration of 1×10^13 nanoparticles/ml). […]

[5] = test system: Mu89 tumors; assay: as above; format: in vivo, mice; conditions: 24 hrs after i.t. injection of HSV expressing GFP
Text: as §1, §2

[6] = test system: HSTS26T tumors; assay: TSP-1 immunostaining of tumor sections; format: in vivo, SCID mice; conditions: losartan treatment
Text: (§3) TSP-1 is a key regulator of TGF-β1 activation and losartan has been reported to reduce TSP-1 expression and TGF-β1 activation in mouse models of Marfan's syndrome and muscular dystrophy (Dietz H C (2010) J Clin Invest 120:403-407). […] In both Mu89 and HSTS26T tumors the immunostaining patterns for TSP-1 (FIGS. 7A-7B) and collagen I (FIGS. 5C-5D) were closely matched. The inventors detected high levels of TSP-1 and collagen I in the tumor margin, while losartan induced obvious reductions in TSP-1 and collagen I levels in the tumor center (FIGS. 5C, 7A).
(§4) Frozen sections were cut into 10 μm sections for immunohistochemistry and imaging. Collagen I was detected using the LF-67 antibody (1:100 dilution) with a previously described protocol (Znati C A, et al. (2003) Clin Cancer Res 9:5508-5513). TSP-1 was detected with a goat anti-human antibody (1:50 dilution), which cross-reacts with mice (sc-12312, Santa Cruz Biotechnology Inc., Santa Cruz, Calif.). For collagen and TSP-1 analysis, images at 20× magnification were taken randomly from each slide. The collagen and TSP-1 content was determined by measuring the number of pixels above a threshold value that was set based on the average intensity value of pixels from all slides under analysis. The background-signal intensity for both collagen I and thrombospondin-1 immunostaining was low and uniform.

[7] = test system: Mu89 tumors; assay: TSP-1 immunostaining of tumor sections; format: in vivo, SCID mice; conditions: losartan treatment
Text: as §3, §4

CCCCc1nc(Cl)c(CO)n1Cc1ccc(-c2ccccc2-c2nn[nH]n2)cc1 [losartan]
tissue oxygenation [1]: maintains the level of oxygenation
solid stress [2]: reduce solid stress to a similar degree
solid stress [3]: reduces solid stress
virus spread [4]: significantly increased
virus spread [5]: significantly increased
decrease in TSP-1 immunostaining [6]: 73%
decrease in TSP-1 immunostaining [7]: 24%

— patent US20130287688A1, “NOVEL COMPOSITIONS AND USES OF ANTI-HYPERTENSION AGENTS FOR CANCER THERAPY” (XTUIT PHARMACEUTICALS, INC., priority 2010, published 2013)
